Source: patent US20260097111A1, “ETHER LIPIDS FOR HYPERACTIVATION OF MAMMALIAN DENDRITIC CELLS” (priority 2022, published 2026)
“Also recorded” adds a separate entry of the source. Where two headings read alike, the source gives them in different places.

Tests used:
[1] = tested on: human monocyte-derived dendritic cells (moDCs); assay: IL-1β secretion by human moDCs treated with lipid and R848; type: cell-based; conditions: for IL-1β secretion: human moDCs
Protocol: (§1) Human monocytes were isolated from Leukopaks purchased from Miltenyi using the StraightFrom Leukopak CD14 microbead kit (Miltenyi). Isolations were completed following manufacturer's instructions. Monocytes were then aliquoted and frozen in fetal bovine serum containing 10% dimethyl sulfoxide. For studies with monocyte-derived dendritic cell (moDC) cultures, monocytes were thawed and cultured in RPMI medium containing 10% FBS, 50 units/mL penicillin, […] streptomycin, 2 mM L-glutamine, 1 mM sodium pyruvate, […] beta-mercaptoethanol, 10 mM HEPES, and Gibco MEM non-essential amino acids (R10 media). To differentiate monocytes into moDCs, recombinant human GM-CSF (50 ng/mL) and IL-4 (25 ng/mL) were added to R10 media. Cells were cultured for 6 days with GM-CSF and IL-4, with an additional cell feeding with R10 containing GM-CSF and IL-4 on day 3.
Six days after differentiation, moDC were collected and counted. Cells were plated into 96-well flat-bottom plates at 1×10^5 cells/well. Cells were treated with or without 1 μg/mL R848 (final) and with or without a hyperactivating lipid (or vehicle control). In some experiments, MCC950, an inhibitor of the NLRP3 inflammasome, was added at a final concentration of 10 uM. In some experiments, nigericin, which causes NLRP3 inflammasome activation and subsequent pyroptosis, was used as a positive control at 20 uM. Cells and stimuli totaled a final volume of […].
Lipid stocks were then further diluted in PBS to treat cells.
(§2) After an overnight incubation, cells and culture supernatant were used for downstream readouts. One hundred and fifty microliters of cell supernatant were collected. Viability was measured using the CellTiter-Glo assay (Promega) which measures ATP content from cells. Fifty microliters of CellTiter-Glo reagent were added to 50 μL of cells. Luminescence was quantified on a SpectraMax m5e plate reader using an integration time of 500 milliseconds. Viability data were set relative to control conditions where cells were treated with only R848. To measure IL-1β secretion, the human IL-1β Lumit kit (Promega) was used to assay cell culture supernatant. Culture supernatant samples were incubated with enzyme-linked antibodies in a 384-well plate for 1 hour before addition of luminescent substrate. Samples were measured for luminescence with an integration time of 500 milliseconds. IL-1β concentrations of samples was determined by interpolation from a standard curve using 4-parameter logistic regression analysis. Studies were performed on three different human donor samples, and each biological condition was tested in triplicate. Graphed data represent means from each donor.
as §1, with “Human moDC Production. Human” for “Human”, “(Miltenyi) according to the” for “(Miltenyi). Isolations were completed following”, “To differentiate” for “For studies with”, “pyruvate, and” for “pyruvate,”, “beta-mercaptoethanol” for “beta-mercaptoethanol, 10 mM HEPES, and Gibco MEM non-essential amino acids”
Hyperactivating Lipid Formulation—Compound 10. Lipid stocks were formulated at 200 μg/mL lipid in 5% Kolliphor P407 (KP407) in PBS.

Solubility observations = type: physicochemical
human moDCs [2] = assay: Cell viability of human moDCs (CellTiter-Glo); type: cell-based; conditions: human moDCs, 20.6 μM lipid; FIG. 19
Protocol: as §2
Measurement of Cytokine Secretion and Cell Viability. After an overnight incubation, cells and culture supernatant were used for downstream readouts. One hundred and fifty microliters of cell culture supernatant were collected. Viability was measured using the CellTiter-Glo assay (Promega) which measures ATP content from cells. Fifty microliters of CellTiter-Glo reagent were added to 50 μL of cells. Luminescence was quantified on a SpectraMax m5e plate reader using an integration time of 500 milliseconds. Viability data were set relative to control conditions where cells were treated with only R848. To measure IL-1β secretion, the human IL-1β Lumit kit (Promega) was used. […] Samples were measured for luminescence with an integration time of 500 milliseconds. IL-1β concentrations of samples was determined by interpolation from a standard curve using 4-parameter logistic regression analysis. […]

human moDCs [3] = assay: IL-6 secretion by human moDCs; type: cell-based
human moDC = assay: IL-1β ELISA, human moDC treated with R848, DGP, MCC950; type: cell-based; conditions: only R848 2.85 μM, donor HD94
Protocol: Monocyte Isolation, Storage, and Differentiation into moDC. Human leukapheresis blood products were freshly obtained from AllCells via same day or overnight shipping at 4° C. Miltenyi StraightFrom Leukopak CD14 MicroBead isolation kits were used according to manufacturer instructions to isolate CD14+ monocytes. Briefly, leukopaks ranging in quantity from 5×10^9 to 1×10^10 total nucleated cells were evenly aliquoted into 50 mL conical tubes. Cells were incubated with CD14 microbeads and then loaded on the MultiMACS using the program “Possel2”. After washing out the negative population, CD14+ cells were eluted from the columns and counted. An aliquot of monocytes was used to stain for purity of cells to ensure that isolated live cells were […] CD11c+CD14+ by flow cytometry. […] Vials were placed in CoolCell freezing containers and placed in a −80° C. freezer and stored no longer than 1 week. Frozen cells were transferred for long-term storage to the vapor phase of a liquid nitrogen freezer until use.
To differentiate monocytes into moDC, vials of cells were taken out of the liquid nitrogen freezer and quickly thawed in a 37° C. water bath. Cells were diluted ten-fold in warmed R10++ media containing 50 units/mL benzonase. R10++ media was composed of RPMI 1640 media containing 10% fetal bovine serum, 50 units/mL penicillin, […] streptomycin, 2 mM L-glutamine, 1 mM sodium pyruvate, […] beta-mercaptoethanol, 10 mM HEPES, and 1% Gibco MEM non-essential amino acids. After gentle mixing by inversion of tubes, cells were incubated at 37° C. for 10 min. Cells were pelleted at 400×g for 5 min and supernatant was aspirated. Cells were resuspended in R10++ media and counted on the MoxiGo by diluting an aliquot in PBS containing a final concentration of 2.5 μg/mL propidium iodide. Cells were plated in T75 culture flasks at 3-6×10^7 cells per flask in a total of 20 mL R10++ media containing a final concentration of 50 ng/mL GM-CSF and 25 ng/mL IL-4. Three days after the start of culture, an additional 10 mL R10++ containing 50 ng/mL GM-CSF and 25 ng/mL IL-4 was added to each flask.
Six days after start of differentiation. R10++ media containing cells were placed into 50 mL conical tubes. Flasks were washed with an additional 10 mL PBS and also collected. […] Cells were resuspended in R10++ media and counted on the MoxiGo by diluting an aliquot in PBS containing a final concentration of 2.5 μg/mL propidium iodide. Cells were then adjusted to 1×10^6 cells/mL in R10++ media.
moDC Treatment. Human moDC were plated at 1×10^5 cells/well in 96-well flat-bottom tissue culture plates in R10++ media by adding 100 μL of cells per well. To each well, a 25 μL solution of R10++ containing 400 ng/mL GM-CSF and 200 ng/mL IL-4 was added.
Lyophilized R848 stocks were prepared as described above and frozen at −80° C. An aliquot of frozen R848 was thawed and further diluted to 11.4 μM in R10++ (4 μg/mL R848). Cell culture conditions receiving R848 treatment had 50 μL added to wells. For wells not receiving R848, 50 μL R10++ was added to wells. Lyophilized MCC950 was prepared as described above and stored at −20° C. MCC950 was further diluted to 40 uM in a prepared R10++ solution containing 11.4 μM R848. Cells receiving R848 and MCC950 treatment had 50 μL added to wells. Final concentrations of R848 and MCC950 in a total 200 μL volume were respectively 2.85 μM and 10 μM.
A4.44% solution of KP407 dissolved in sterile, distilled water was prepared at a temperature of 4° C. […]

[4] = Serum chemokines and cytokines after SC injection; type: in vivo, mice; conditions: mouse, in vivo, sc
Protocol: Lipid Preparation. […] Lipids were used for chemical injections or DC treatment within one hour of their preparation.
Subcutaneous (SC) Injection. Mice were placed under Isoflurane for a few min for anesthesia. Tubes containing the chemicals were vortexed for 30 seconds, then loaded with a 1 mL Sub-Q syringe.
Blood Collection. Mice were placed under Isoflurane for approximately 10 min for anesthesia. Using a 21G needle, mice were gently poked through the skin to the submandibular space to induce bleeding. Five-Six drops were collected in a mini collect K2EDTA blood collection tube. Blood samples were transported back to Corner Therapeutics lab on ice. The blood was then centrifuged at 1500×g for 5 min. After centrifugation, blood was collected into a 96-well round bottom plate and stored at −80° C.
Measurement of Serum Chemokines and Cytokines. Secreted cytokines were measured in the supernatant by cytokine bead array using the LEGENDplex™ Mouse Murine Proinflammatory Chemokine, Murine Cytokine Release Syndrome Legendplex and LEGENDplex™ Mouse Cytokine Panel 2 (Biolegend) according to the manufacturer's protocol. Data were collected using a Quanteon Novocyte flow cytometer and analyzed using the cloud-based software provided by Biolegend.

human moDCs [5] = conditions: for IFNα2: R848 stimulation, FIG. 33B
[6] = 41.25 μM lipid with R848, FIG. 17

1-behenoyl-2-hydroxy-sn-glycero-3-phosphocholine [22:0 lyso PC, reference compound]
IL-1β secretion [1, 6]: significant increase in IL-1β | IL-1β secretion ([1]; 41.25 μM lipid with R848 vs vehicle control, FIG. 8): produced significantly more IL-1β | IL-1β secretion ([1]; 41.3 uM lipid with R848, FIG. 11): robustly induced IL-113 secretion | IL-1β secretion ([1]; 24 hours, lipid (equimolar, in 0.5% KP407) with R848, FIG. 1B): IL-1β was secreted | IL-1β secretion ([1]; 24 hours, lipid in 4% KP407 with R848, FIG. 2B): induced a detectable amount of IL-1β | solubility (Solubility observations): can be dissolved in ethanol, methanol, or chloroform

CCCCCCCCCCCCCCCCCCCCCCOC[C@@H](O)COP(=O)([O-])OCC[N+](C)(C)C [Compound 1, 1-docosyl-sn-glycerol-3-phosphocholine]
hyperactivation of human dendritic cells ([1]; 41.25 μM lipid with R848 (Compound 1 also 20.6 μM)): hyperactivated dendritic cells | IL-1β secretion ([1]; 20.6 μM lipid, FIG. 20): induced IL-1β secretion that was dependent upon R848 stimulation and the NLRP3 inflammasome | IL-1β secretion [1, 6]: significantly increased IL-1β secretion | IL-1β secretion ([1]; 24 hours, lipid (equimolar, in 0.5% KP407) with R848, FIG. 1B, listed as DGPC): also induced IL-1β secretion; also recorded: induced less IL-1β than 22:0 lyso PC | cell viability (human moDCs [2]): > 75% | solubility (Solubility observations): can be dissolved in ethanol, methanol, or chloroform

CCOCc1nc2c(N)nc3ccccc3c2n1CC(C)(C)O [Compound R848, resiquimod, reference compound]
IL-6 in cell culture supernatant (human moDCs [3]; human moDCs stimulated with R848, FIG. 10): greater than 20,000 μg/mL | IL-6 secretion (human moDCs [3]; human moDCs, R848 with vehicle, no hyperactivating lipid, FIG. 16): approximately 20,000 μg/mL | IL-1β (human moDC): 288 µg/mL | cytokine and chemokine release in the serum [4]: returned to homeostasis (PBS levels) by 24 hours post injection | IFNα2 (human moDCs [5]; donor HD92): 94 µg/mL | IFNα2 (human moDCs [5]; donor HD93): 82 µg/mL | IL-12p70 (human moDCs [5]; donors HD92 and HD93, FIG. 32C): at least 100 μg/mL
